EP4471048A1, “PEPTIDE INHIBITORS OF INTERLEUKIN-23 RECEPTOR” (Zealand Pharma A/S, priority 2023, dated 2024)
*1 amine or outer side, *2 acyl side, *3 side chain or, on linkers, in order; H or OH if unused. Where a SMILES comes first, the peptide text is derived from it. Bridges are numbered along the chain shown (N, C = ends). [ ]: non-standard residue; d: D form. Trp(1-Me) = Cn1cc(C[C@H](N)C(=O)O)c2ccccc21; X14 = O=C(CC[C@H](N[*:2])C(=O)[*:3])[*:1]; X8 = O=C(CC[C@@H](N[*:2])C(=O)[*:3])[*:1]; X17 = O=C(C[C@@H](CCCN[*:3])N[*:2])[*:1]; 2Nal = N[C@@H](Cc1ccc2ccccc2c1)C(=O)O; AEF = NCCOc1ccc(C[C@H](N)C(=O)O)cc1; 3Pal = N[C@@H](Cc1cccnc1)C(=O)O; αMeL = CC(C)C[C@](C)(N)C(=O)O; Dab = NCC[C@H](N)C(=O)O; βAla = NCCC(=O)O

Target: T1, human IL-23R (Homo sapiens, UniProt Q5VWK5)
T1 sequence (Q5VWK5 22-629): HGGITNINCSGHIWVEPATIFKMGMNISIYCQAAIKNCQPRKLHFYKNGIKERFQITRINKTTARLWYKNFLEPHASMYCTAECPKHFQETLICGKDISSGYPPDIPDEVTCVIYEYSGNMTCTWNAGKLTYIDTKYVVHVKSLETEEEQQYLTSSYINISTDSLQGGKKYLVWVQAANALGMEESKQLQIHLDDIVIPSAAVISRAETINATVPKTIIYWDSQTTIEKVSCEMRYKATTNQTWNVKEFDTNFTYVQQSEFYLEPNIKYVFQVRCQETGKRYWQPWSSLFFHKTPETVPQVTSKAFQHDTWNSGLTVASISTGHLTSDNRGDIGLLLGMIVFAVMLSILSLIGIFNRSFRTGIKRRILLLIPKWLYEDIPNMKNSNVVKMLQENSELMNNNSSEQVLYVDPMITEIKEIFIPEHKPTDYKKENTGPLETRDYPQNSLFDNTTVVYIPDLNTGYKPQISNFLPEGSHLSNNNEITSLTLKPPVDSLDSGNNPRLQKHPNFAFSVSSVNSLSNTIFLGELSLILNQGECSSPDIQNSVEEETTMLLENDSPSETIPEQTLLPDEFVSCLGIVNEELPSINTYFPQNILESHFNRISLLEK
Test: biochemical
Conditions: for Emax: read-out: % displacement (hIL-23R NIuc)
Outline: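 Membranes from HEK293 cells stably expressing Nluc-tagged human IL-23R were incubated 2 h at room temperature with test compound and a fluorophore-labelled tracer. After substrate addition, loss of BRET (TAMRA over luciferase emission) reported tracer displacement. A 4PL fit gave IC50 values.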

CNC(=O)[C@H](Cc1cccnc1)NC(=O)[C@H](CCN)NC(=O)[C@@H]1CCC(=O)NCCCC[C@@H]2NC(=O)CC[C@H](NC(=O)[C@H](CCC(N)=O)NC(=O)[C@H](Cc3cn(C)c4ccccc34)NC(=O)CCNC2=O)C(=O)N[C@@H](Cc2ccc(OCCN)cc2)C(=O)N[C@@H](Cc2ccc3ccccc3c2)C(=O)N[C@@](C)(CC(C)C)C(=O)N1 [Compound 79, K(1c)(6c)^†[3-Aminopropanoyl][1-Me-Trp]QE(6c)[Y(2-aminoethoxy)][2-Nal][2-Me-Leu]E(1c)[Dab][3-(3-Pyridyl)-Ala]-[NHMe]] (K[βAla][Trp(1-Me)]QE[AEF][2Nal][αMeL]E[Dab][3Pal]-NHMe; lactam 1-9, N-5)
IC50: 0.02 nM | Emax: 100%

CC[C@H](C)[C@@H]1NC(=O)[C@@H]2CCCCNC(=O)CC[C@@H](C(=O)NCC(=O)N[C@H](Cc3cccnc3)C(N)=O)NC(=O)[C@](C)(C(C)C)NC(=O)[C@H](Cc3ccc4ccccc4c3)NC(=O)[C@H](CC3CC3)NC(=O)[C@H](CCC(=O)N2)NC(=O)[C@H](CCC(N)=O)NC(=O)[C@H](Cc2c[nH]c3ccccc23)NC(=O)[C@H](C(C)C)NC1=O [Compound 20, K(1c)(6c)^†IVWQE(6c)[Cyclopropyl-Ala][2-Nal][2-Me-Val]E(1c)G[{d}3-(3-Pyridyl)-Ala]-[NH2]]
% displacement (hIL-23R NIuc): 108% | IC50: 150 nM

CC(C)C[C@]1(C)NC(=O)[C@H](Cc2ccc3ccccc3c2)NC(=O)[C@H](Cc2ccc(OCCN)cc2)NC(=O)[C@@H]2CCC(=O)N[C@H](CCCNC(=O)CC[C@@H](C(=O)N[C@@H](CCN)C(=O)N[C@@H](Cc3cccnc3)C(N)=O)NC1=O)CC(=O)N[C@@H]([C@@H](C)O)C(=O)N[C@@H](Cc1c[nH]c3ccccc13)C(=O)N[C@@H](CCC(N)=O)C(=O)N2 [Compound 14, [{d}bLys](1c)(6c)^†TWQE(6c)[Y(2-aminoethoxy)][2-Nal][2-Me-Leu]E(1c)[Dab][3-(3-Pyridyl)-Ala]-[NH2]] (TWQE[AEF][2Nal][αMeL]E[Dab][3Pal]-NH2; linker N-4-8 via X17)
IC50: 0.44 nM | Emax: 101%

CNC(=O)[C@H](Cc1cccnc1)NC(=O)[C@H](Cc1ccncc1)NC(=O)[C@@H]1CCC(=O)NCCCC[C@@H]2NC(=O)CC[C@H](NC(=O)[C@H](CCC(N)=O)NC(=O)[C@H](Cc3c[nH]c4ccccc34)NC(=O)CCNC2=O)C(=O)N[C@@H](Cc2ccc(OCCN)cc2)C(=O)N[C@@H](Cc2ccc3ccccc3c2)C(=O)N[C@@](C)(CC(C)C)C(=O)N1 [Compound 89, K(1c)(6c)^†[3-Aminopropanoyl]WQE(6c)[Y(2-aminoethoxy)][2-Nal][2-Me-Leu]E(1 c)[3-(4-Pyridyl)-Ala][3-(3-Pyridyl)-Ala]-[NHMe]]
IC50: 0.04 nM | Emax: 100%

CNC(=O)[C@H](Cc1cccnc1)NC(=O)[C@H](CCN)NC(=O)[C@@H]1CCNC(=O)[C@H]2CCC(=O)N[C@@H](Cc3c[nH]c4ccccc34)C(=O)N[C@@H](CCC(N)=O)C(=O)N[C@@H](CCC(=O)N2)C(=O)N[C@@H](Cc2ccc(OCCN)cc2)C(=O)N[C@@H](Cc2ccc3ccccc3c2)C(=O)N[C@@](C)(CC(C)C)C(=O)N1 [Compound 109, [{d}iso-Glu](1c)^‡(6c)^†WQE(6c)[Y(2-aminoethoxy)][2-Nal][2-Me-Leu][Dab](1c)[Dab][3-(3-Pyridyl)-Ala]-[NHMe]] (WQE[AEF][2Nal][αMeL][Dab][Dab][3Pal]-NHMe; linker N-3-7 via X8)
IC50: 26 nM | Emax: 96%

CC(C)C[C@]1(C)NC(=O)[C@H](Cc2ccc3ccccc3c2)NC(=O)[C@H](Cc2ccc(OCCN)cc2)NC(=O)[C@@H]2CCC(=O)N[C@@H](CCCCNC(=O)CC[C@@H](C(=O)NCCCCc3cccnc3)NC1=O)C(=O)N[C@@H](CO)C(=O)N[C@@H](C(C)C)C(=O)N[C@@H](Cc1c[nH]c3ccccc13)C(=O)N[C@@H](CCC(N)=O)C(=O)N2 [Compound 30, K(1c)(6c)^†SVWQE(6c)[Y(2-aminoethoxy)][2-Nal][2-Me-Leu]E(1c)-[NH-4-(pyridin-3-yl)butanyl]]
% displacement (hIL-23R NIuc): 101% | IC50: 20 nM

CNC(=O)[C@H](Cc1cccnc1)NC(=O)[C@H](CCN)NC(=O)[C@@H]1CCCCNC(=O)[C@@H]2CCC(=O)N[C@@H](Cc3c[nH]c4ccccc34)C(=O)N[C@@H](CCC(N)=O)C(=O)N[C@@H](CCC(=O)N2)C(=O)N[C@@H](Cc2ccc(OCCN)cc2)C(=O)N[C@@H](Cc2ccc3ccccc3c2)C(=O)N[C@@](C)(CC(C)C)C(=O)N1 [Compound 106, [iso-Glu](1c)^‡(6c)^†WQE(6c)[Y(2-aminoethoxy)][2-Nal][2-Me-Leu]K(1c)[Dab][3-(3-Pyridyl)-Ala]-[NHMe]] (WQE[AEF][2Nal][αMeL]K[Dab][3Pal]-NHMe; linker N-3-7 via X14)
% displacement (hIL-23R NIuc): 99% | IC50: 2.5 nM

CNC(=O)[C@H](Cc1cccnc1)NC(=O)[C@H](CCN)NC(=O)[C@@H]1CCC(=O)NCCCC[C@@H]2C(=O)N[C@@H]([C@@H](C)O)C(=O)N[C@@H](Cc3c[nH]c4ccccc34)C(=O)N[C@@H](CCC(N)=O)C(=O)N[C@@H](CCc3cn2nn3)C(=O)N[C@@H](Cc2ccc(OCCN)cc2)C(=O)N[C@@H](Cc2ccc3ccccc3c2)C(=O)N[C@@](C)(CC(C)C)C(=O)N1 [Compound 42, [{d}(N3)-K](1c)(6g)^†TWQ[Hpg](6g)[Y(2-aminoethoxy)][2-Nal][2-Me-Leu]E(1c)[Dab][3-(3-Pyridyl)-Ala]-[NHMe]]
IC50: 1.9 nM | Emax: 96%

CNC(=O)[C@H](Cc1cccnc1)NC(=O)[C@H](CCN)NC(=O)[C@@H]1CCC(=O)NCCC[C@@H]2NC(=O)CC[C@H](NC(=O)[C@H](CCC(N)=O)NC(=O)[C@H](Cc3c[nH]c4ccccc34)NC(=O)CNC2=O)C(=O)N[C@@H](Cc2ccc(OCCN)cc2)C(=O)N[C@@H](Cc2ccc3ccccc3c2)C(=O)N[C@@](C)(CC(C)C)C(=O)N1 [Compound 90, [Orn](1c)(6c)^†GWQE(6c)[Y(2-aminoethoxy)][2-Nal][2-Me-Leu]E(1c)[Dab][3-(3-Pyridyl)-Ala]-[NHMe]]
IC50: 6.4 nM | Emax: 101%

COc1ccc(C[C@@H]2NC(=O)[C@@H]3CCC(=O)N[C@@H](CCCCNC(=O)CC[C@@H](C(=O)N[C@@H](CCCCNC(=O)Cc4ccncc4)C(N)=O)NC(=O)[C@](C)(CC(C)C)NC(=O)[C@H](Cc4ccc5ccccc5c4)NC2=O)C(=O)N[C@@H]([C@@H](C)O)C(=O)N[C@@H](C(C)C)C(=O)N[C@@H](Cc2c[nH]c4ccccc24)C(=O)N[C@@H](CCC(N)=O)C(=O)N3)cc1 [Compound 54, K(1c)(6c)^†TVWQE(6c)[Y(Me)][2-Nal][2-Me-Leu]E(1c)[K(4-pyridylacetyl)]-[NH2]]
IC50: 290 nM | Emax: 105%

CNC(=O)[C@H](Cc1cccnc1)NC(=O)[C@H](CCN)NC(=O)[C@@H]1CCC(=O)NCC[C@@H]2NC(=O)CC[C@H](NC(=O)[C@H](CCC(N)=O)NC(=O)[C@H](Cc3c[nH]c4ccccc34)NC(=O)CNC2=O)C(=O)N[C@@H](Cc2ccc(OCCN)cc2)C(=O)N[C@@H](Cc2ccc3ccccc3c2)C(=O)N[C@@](C)(CC(C)C)C(=O)N1 [Compound 92, [Dab](1c)(6c)^†GWQE(6c)[Y(2-aminoethoxy)][2-Nal][2-Me-Leu]E(1c)[Dab][3-(3-Pyridyl)-Ala]-[NHMe]]
IC50: 12 nM

COc1ccc(C[C@@H]2NC(=O)[C@@H]3CCC(=O)N[C@@H](CCCCNC(=O)CC[C@@H](C(=O)N[C@@H](CCCCNC(=O)c4ccccn4)C(N)=O)NC(=O)[C@](C)(CC(C)C)NC(=O)[C@H](Cc4ccc5ccccc5c4)NC2=O)C(=O)N[C@@H]([C@@H](C)O)C(=O)N[C@@H](C(C)C)C(=O)N[C@@H](Cc2c[nH]c4ccccc24)C(=O)N[C@@H](CCC(N)=O)C(=O)N3)cc1 [Compound 47, K(1c)(6c)^†TVWQE(6c)[Y(Me)][2-Nal][2-Me-Leu]E(1c)[K(piconilate)]-[NH2]]
IC50: 730 nM | Emax: 99%

CC[C@H](C)[C@@H]1NC(=O)[C@@H]2CCCCNC(=O)CC[C@@H](C(=O)NCC(=O)N[C@H](Cc3cccnc3)C(N)=O)NC(=O)[C@](C)(C(C)C)NC(=O)[C@H](Cc3ccc4ccccc4c3)NC(=O)[C@@H](Cc3ccccc3)NC(=O)[C@H](CCC(=O)N2)NC(=O)[C@H](CCC(N)=O)NC(=O)[C@H](Cc2c[nH]c3ccccc23)NC(=O)[C@H](C(C)C)NC1=O [Compound 22, K(1c)(6c)^†IVWQE(6c)[{d}F][2-Nal][2-Me-Val]E(1c)G[{d}3-(3-Pyridyl)-Ala]-[NH2]]
IC50: 980 nM | Emax: 86%

COc1ccc(C[C@@H]2NC(=O)[C@@H]3CCC(=O)N[C@@H](CCCCNC(=O)CC[C@@H](C(=O)N[C@@H](CCCCNC(=O)Cc4ccccn4)C(N)=O)NC(=O)[C@](C)(CC(C)C)NC(=O)[C@H](Cc4ccc5ccccc5c4)NC2=O)C(=O)N[C@@H]([C@@H](C)O)C(=O)N[C@@H](C(C)C)C(=O)N[C@@H](Cc2c[nH]c4ccccc24)C(=O)N[C@@H](CCC(N)=O)C(=O)N3)cc1 [Compound 48, K(1c)(6c)^†TVWQE(6c)[Y(Me)][2-Nal][2-Me-Leu]E(1c)[K(2-pyridylacetyl)]-[NH2]]
IC50: 290 nM | Emax: 101%

CNC(=O)[C@H](Cc1cccnc1)NC(=O)[C@H](CCN)NC(=O)[C@@H]1CCC(=O)NCC[C@@H]2NC(=O)CC[C@H](NC(=O)[C@H](CCC(N)=O)NC(=O)[C@H](Cc3c[nH]c4ccccc34)NC2=O)C(=O)N[C@@H](Cc2ccc(OCCN)cc2)C(=O)N[C@@H](Cc2ccc3ccccc3c2)C(=O)N[C@@](C)(CC(C)C)C(=O)N1 [Compound 94, [Dab](1c)(6c)^†WQE(6c)[Y(2-aminoethoxy)][2-Nal][2-Me-Leu]E(1c)[Dab][3-(3-Pyridyl)-Ala]-[NHMe]]
IC50: 3.7 nM | Emax: 99%
